Mutagenic call data for seven compounds are collected here from PubChem BioAssay AID1259407 (Chemical Carcinogenesis Research Information System (CCRIS), 2018).

The test system of this data set is CCRIS mutagenicity, Ames/micronucleus/aberration tests. Kind of data set: CCRIS mutagenicity studies.
Where [1] appears, read: Test System: AMES SALMONELLA TYPHIMURIUM, Strain/Indicator: TA98, Metabolic Activation: NONE, Method: PREINCUBATION
[2] abbreviates: Test System: AMES SALMONELLA TYPHIMURIUM, Strain/Indicator: TA100, Metabolic Activation: NONE, Method: PREINCUBATION
The mark [3] stands for this setting: Test System: AMES SALMONELLA TYPHIMURIUM, Strain/Indicator: TA98, Metabolic Activation: NONE, Method: STANDARD PLATE.

Active and inactive are the calls of the source. The rule behind the calls is not given here.

Take `O=C(Nc1ccccc1)c1cc2ccccc2c(N=Nc2cc(Cl)ccc2Cl)c1O`: the mutagenic call is, setting by setting: (Test System: AMES SALMONELLA TYPHIMURIUM, Strain/Indicator: TA98, Metabolic Activation: HAMSTER, LIVER, S-9, AROCLOR 1254 (10%), Method: PREINCUBATION) “inactive; negative”; (Test System: AMES SALMONELLA TYPHIMURIUM, Strain/Indicator: TA98, Metabolic Activation: HAMSTER, LIVER, S-9, AROCLOR 1254 (30%), Method: PREINCUBATION) “active; positive”; under setting [1], “inactive; negative”; (Test System: AMES SALMONELLA TYPHIMURIUM, Strain/Indicator: TA98, Metabolic Activation: RAT, LIVER, S-9, AROCLOR 1254 (30%), Method: PREINCUBATION) “inactive; negative”; (Test System: AMES SALMONELLA TYPHIMURIUM, Strain/Indicator: TA100, Metabolic Activation: HAMSTER, LIVER, S-9, AROCLOR 1254 (30%), Method: PREINCUBATION) “inactive; negative”; under setting [2], “inactive; negative”. For the same compound, the mutagenic call is, setting by setting: (Test System: AMES SALMONELLA TYPHIMURIUM, Strain/Indicator: TA100, Metabolic Activation: RAT, LIVER, S-9, AROCLOR 1254 (30%), Method: PREINCUBATION) “inactive; negative”; (Test System: AMES SALMONELLA TYPHIMURIUM, Strain/Indicator: TA1538, Metabolic Activation: HAMSTER, LIVER, S-9, AROCLOR 1254 (30%), Method: PREINCUBATION) “active; positive”.
As for `Cc1ccc2nc3ccccc3c(N)c2c1`, where the note is “Test System: AMES SALMONELLA TYPHIMURIUM, Strain/Indicator: TA1537, Metabolic Activation: NONE, Method: PREINCUBATION”, the mutagenic call is “active; positive”.
Regarding `CC(=O)OCC1=CO[C@@H](OC(=O)CC(C)C)[C@H]2C1=C[C@H](OC(=O)CC(C)C)[C@]21CO1`, the mutagenic call by setting is: under setting [3], “inactive; negative”; (Test System: AMES SALMONELLA TYPHIMURIUM, Strain/Indicator: TA98, Metabolic Activation: RAT, LIVER, S-9, AROCLOR 1254, Method: STANDARD PLATE) “inactive; negative”; (Test System: AMES SALMONELLA TYPHIMURIUM, Strain/Indicator: TA100, Metabolic Activation: NONE, Method: STANDARD PLATE) “inactive; negative”; (Test System: AMES SALMONELLA TYPHIMURIUM, Strain/Indicator: TA100, Metabolic Activation: RAT, LIVER, S-9, AROCLOR 1254, Method: STANDARD PLATE) “active; positive”; (Test System: AMES SALMONELLA TYPHIMURIUM, Strain/Indicator: TA1535, Metabolic Activation: NONE, Method: STANDARD PLATE) “inactive; negative”; (Test System: AMES SALMONELLA TYPHIMURIUM, Strain/Indicator: TA1535, Metabolic Activation: RAT, LIVER, S-9, AROCLOR 1254, Method: STANDARD PLATE) “inactive; negative”. In addition, the mutagenic call was “inactive; negative” (Test System: AMES SALMONELLA TYPHIMURIUM, Strain/Indicator: TA1537, Metabolic Activation: NONE, Method: STANDARD PLATE); “inactive; negative” (Test System: AMES SALMONELLA TYPHIMURIUM, Strain/Indicator: TA1537, Metabolic Activation: RAT, LIVER, S-9, AROCLOR 1254, Method: STANDARD PLATE); “inactive; negative” (Test System: E. COLI, Strain/Indicator: WP2, Metabolic Activation: NONE, Method: STANDARD PLATE); “inactive; negative” (Test System: E. COLI, Strain/Indicator: WP2, Metabolic Activation: RAT, LIVER, S-9, AROCLOR 1254, Method: STANDARD PLATE); “active; positive” (Test System: E. COLI, Strain/Indicator: WP2 UVRA, Metabolic Activation: NONE, Method: STANDARD PLATE); “inactive; negative” (Test System: E. COLI, Strain/Indicator: WP2 UVRA, Metabolic Activation: RAT, LIVER, S-9, AROCLOR 1254, Method: STANDARD PLATE).
As to `C=CC(C)(C)c1cc2cc3c(cc2oc1=O)OC(C(C)(C)OC(C)=O)C3` (stereo unspecified), the mutagenic call under setting [3] is “inactive; negative” and the mutagenic call (Test System: AMES SALMONELLA TYPHIMURIUM, Strain/Indicator: TA98, Metabolic Activation: RAT, LIVER, S-9, PHENOBARBITAL, Method: STANDARD PLATE) is “inactive; negative”.
`Nc1nc2ccc(O)cc2[nH]1`: the mutagenic call reads like this: (Test System: AMES SALMONELLA TYPHIMURIUM, Strain/Indicator: TA98, Metabolic Activation: RAT, LIVER, S-9, AROCLOR 1254, Method: PREINCUBATION) “active; positive”; (Test System: AMES SALMONELLA TYPHIMURIUM, Strain/Indicator: TA100, Metabolic Activation: RAT, LIVER, S-9, AROCLOR 1254, Method: PREINCUBATION) “inactive; negative”.
Take `O=[N+]([O-])c1cccc2nc3c([N+](=O)[O-])cccc3nc12`: the mutagenic call (Test System: AMES SALMONELLA TYPHIMURIUM, Strain/Indicator: TA98(NR), Metabolic Activation: NONE, Method: PREINCUBATION) is “inactive; negative” and the mutagenic call under setting [1] is “inactive; negative”.
`COc1nncc2cnccc12`: the mutagenic call is, setting by setting: under setting [1], “inactive; negative”; (Test System: AMES SALMONELLA TYPHIMURIUM, Strain/Indicator: TA98, Metabolic Activation: RAT, LIVER, S-9, PCB, Method: PREINCUBATION) “inactive; negative”; under setting [2], “inactive; negative”; (Test System: AMES SALMONELLA TYPHIMURIUM, Strain/Indicator: TA100, Metabolic Activation: RAT, LIVER, S-9, PCB, Method: PREINCUBATION) “inactive; negative”.
